In patent US11400106B2, “Methods for inhibiting microbe growth” (priority 2018, dated 2022):
In brackets after ≈: the same amount, converted by molar mass. Like-named read-outs stand apart in the source and are kept apart here.

Tests used:
MRSA [1] = assay: Time kill curve; type: cell-based, Staphylococcus aureus; details: 256 μg/mL azithromycin, 50 mM bicarbonate, 4 hours
Protocol: Experiments to measure the effect of bicarbonate on bactericidal activity of azithromycin were completed according to a Clinical & Laboratory Standards Institute (CLSI) protocol. Briefly, the various treatments were added to logarithmic-phase culture of MRSA in CA-MHB at the concentrations indicated in FIG. 39 and incubated at 37° C. At time points indicated in FIG. 39, cell suspensions were 10-fold serially diluted using sterile PBS buffer and spread on plates of MHB agar. Bacterial colonies were counted after cultivation at 37° C. for 24 hours.

MRSA [2] = assay: Checkerboard azithromycin and sodium bicarbonate against MRSA; type: cell-based, Staphylococcus aureus
Protocol: (§1) Standard checkerboard broth microdilution assays were set-up in 96-well microtiter plates with serially diluted 8 (or 10) concentrations of each drug (or bicarbonate), using the conditions based on CLSI guidelines, as noted above. All checkerboards were conducted in duplicate.
(§2) To assess the dose-dependence of the interaction of azithromycin and bicarbonate, standard microbroth checkerboard techniques in MRSA and P. aeruginosa were used. For both pathogens, enhancement of the activity of azithromycin was further pronounced with increasing concentrations of sodium bicarbonate, as shown in FIG. 34A and FIG. 34B, respectively. This is consistent in various different isolates of the pathogens. Evident within these checkerboards is the inherent resistance of MRSA and P. aeruginosa to azithromycin in the absence of bicarbonate, where >64 μg/mL of azithromycin was required to inhibit growth to less than 10% growth.

[3] = system: macrolide-resistant strain of MRSA; assay: Cellular accumulation of azithromycin by LC-MS/MS; type: cell-based, Staphylococcus aureus; details: azithromycin 512 μg/mL, 10 minutes contact
Protocol: A method to measure azithromycin accumulation into a macrolide-resistant strain of MRSA was adapted from a protocol described in Richter et al., Nature 545, pp. 299-304 (2017). Liquid chromatography with tandem mass spectroscopy (LC-MS/MS) was used to quantify accumulation of azithromycin in the absence or presence of 50 mM sodium bicarbonate. Azithromycin was used at 512 μg/mL (because the strain is macrolide-resistant). The azithromycin (in the absence or presence of bicarbonate) was in contact with the MRSA for 10 minutes.

S. pneumoniae = assay: Susceptibility testing of conjunctival isolates of S. pneumoniae; type: cell-based; details: Streptococcus pneumoniae, bicarbonate as in label
Protocol: (§3) This study included one hundred (n=100) clinical isolates of methicillin-resistant Staphylococcus aureus (MRSA) and ninety-two (n=92) clinical isolates of P. aeruginosa. All samples were collected from patients at Hamilton Health Sciences hospitals (Hamilton, Ontario, Canada). Isolates, regardless of site of infection, were selected for study if they were resistant to three or more antibiotics. The isolates were cultured on plates and subsequently tested for antimicrobial susceptibility. Initial culture and antibiotic susceptibility testing were performed by Hamilton General Hospital General Microbiology Laboratory using a VITEK 2 Automated System and its Advanced Expert System (bioMerieux) and were compliant with Clinical & Laboratory Standards Institute (CLSI) antibiotic susceptibility testing formulations. Both quantitative minimum inhibitory concentration (MIC) and CLSI breakpoints were reported for each antibiotic. Additionally, a total of 7 conjunctival-sourced ocular isolates of Streptococcus pneumoniae collected by the International Health Management Associates (IHMA) from various locations in the United States were used in the study.
Antimicrobial sensitivity of the pathogenic strains was determined in compliance with the CLSI protocol. […] Plates were incubated for 18 hours at 37° C. and read at 600 nm on a Tecan, infinite M1000 PRO plate reader. […]

P. aeruginosa CA1216 = assay: Mouse model of skin infection, neutropenic Balb/c mice; type: in vivo, Pseudomonas aeruginosa; details: topical 200 μg/mL azithromycin with 40 mM sodium bicarbonate, 25 hours post-infection
Protocol: The effect of bicarbonate on antimicrobial activity of azithromycin against P. aeruginosa was tested in a mouse model of skin infection. Balb/c mice (6-8 weeks old, female) were rendered neutropenic. Mice were treated with cyclophosphamide on day −4 (150 mg/kg) and day −1 (100 mg/kg). The following compositions were prepared: (1) Vehicle: 5 mg/mL MC, 1% DMSO; […] A 10 mg/mL methylcellulose (MC) solution was made from methylcellulose 4000 cp. 100 mL of sterile water was heated in a microwave for 30 seconds prior to adding to MC to improve solubility. The composition was shaken on a vortex for ˜20 min to completely dissolve. The compositions for mouse treatments were prepared as follows: (1) Vehicle: 980 μL sterile water, 20 μL, DMSO, 1 mL MC (10 mg/mL); […] Each composition was vortexed after preparation. […] The inoculum was diluted and plated on LB to quantify colony-forming units (CFU). The mice were weighed. Buprenorphine IP (0.025 mg/kg) was administered as an analgesic. To anaesthetize the mice, isoflurane (gaseous anesthetic) was administered. […] The fur was stripped from the back of the neck using autoclave tape. An area of ˜2 cm^2 was tape stripped by applying and removing the tape 25-30 times. […] Mice were placed into a recovery cage and monitored until the righting reflex returned. Mice were singly housed and monitored after infection. […]

P. aeruginosa [4] = assay: Susceptibility testing of P. aeruginosa clinical isolates (n=92); type: cell-based, Pseudomonas aeruginosa; details: Pseudomonas aeruginosa, P. aeruginosa, n = 92 isolates, bicarbonate as in label
Protocol: as §3
(§4) Antimicrobial sensitivity of the pathogenic strains was determined in compliance with the CLSI protocol. Mueller-Hinton agar plates were used to streak out bacterial species and the direct colony suspension method for inoculum preparation was used to make a suspension of the organism in saline to the density of a McFarland 0.5 turbidity standard. Cation-adjusted Mueller-Hinton broth (CA-MHB) manufactured according to ISO technical standard was used for susceptibility testing in standard 96-well microdilution plates. All antibiotics were purchased as powders from Sigma-Aldrich Canada Co. (Oakville, Canada) and dissolved in appropriate solvent to provide stock solutions as instructed by the manufacturer. Desired test antibiotic solutions were diluted in solvent at a highest test concentration resulting in 256 μg/mL. Where sodium bicarbonate was used, aqueous sterile-filtered sodium bicarbonate solution (7.5% stock) from Sigma-Aldrich Canada Co. (Oakville, Canada) was diluted to the desired concentration in CAMHB. Plates were incubated for 18 hours at 37° C. and read at 600 nm on a Tecan, infinite M1000 PRO plate reader. In accordance with CLSI, methods with appropriate medium supplements for fastidious streptococci (2.5% lysed horse blood, Innovative Research, Inc., Novi, Mich.) were used. […] All MICs in the study were conducted in duplicate.

[5] = system: methicillin-resistant Staphylococcus aureus (MRSA); assay: Susceptibility testing of MRSA clinical isolates (n=100); type: cell-based; details: for MIC50 / MIC90 / MIC: Staphylococcus aureus, MRSA
Protocol: as §3, §4

P. aeruginosa [6] = assay: Checkerboard azithromycin and sodium bicarbonate against P. aeruginosa; type: cell-based, Pseudomonas aeruginosa
Protocol: as §1, §2

S. aureus [7] = assay: microbe, parasite or virus in culture; details: Staphylococcus aureus
Acinetobacter baumannii = assay: MIC determination against Acinetobacter baumannii; type: cell-based; details: Acinetobacter baumannii
Protocol: (§5) In the following experiments, bacterial cells were cultured in 96-well microtiter plates in cation-adjusted Mueller-Hinton Broth (MHB) for 18 h at 37° C. The main strains used were E. coli (K-12 BW25113) (placed in stationary incubator) and S. aureus (Newman Strain) (incubated at 250 r.p.m). Knockout strains (ΔtolcC and ΔychM) were used from the Keio knockout collection (Baba et al., Construction of Escherichia coli K-12 in-frame, single-gene knockout mutants: the Keio collection. Mol Syst Biol 2, 2006 0008, doi:10.1038/msb4100050 (2006)). For MIC determination and checkerboard analyses, Clinical & Laboratory Standards Institute (CLSI) protocol was used. […] DiSC3 loading of S. aureus cells was performed as previously described (Farha et al., Collapsing the proton motive force to identify synergistic combinations against Staphylococcus aureus. Chemistry & biology 20, 1168-1178, doi:10.1016/j.chembiol.2013.07.006 (2013)). CCCP concentration of 20 μM was used. pH adjustments were made by addition of HCl or NaOH. INT assay and ATP bioluminescence assays were performed as previously described (Farha et al., Collapsing the proton motive force to identify synergistic combinations against Staphylococcus aureus. Chemistry & biology 20, 1168-1178, doi:10.1016/j.chembiol.2013.07.006 (2013)). For chemical-genomic studies, the Keio library was grown overnight in cation-adjusted MHB broth, in 384-well plates. From these, treatment plates (25 mM sodium bicarbonate, or a sterile water control) were inoculated and grown for 15 hours at 37° C., in a stationary incubator. Data was normalized according to Mangat et al (Mangat et al., Rank ordering plate data facilitates data visualization and normalization in high-throughput screening. J Biomol Screen 19, 1314-1320, doi:10.1177/1087057114534298 (2014)), with gene products and GO terms mined from EcoCyc. The GFP promoter library (Keseler et al., EcoCyc: fusing model organism databases with systems biology. Nucleic Acids Res 41, D605-612, doi:10.1093/nar/gks1027 (2013)) was grown for 18 hours at ambient temperature with the same inoculation strategy as with the Keio collection. The analysis pipeline of Zaslaver et al (Zaslaver et al., A comprehensive library of fluorescent transcriptional reporters for Escherichia coli. Nat Methods 3, 623-628, doi:10.1038/nmeth895 (2006)) was used to generate maps of promoter activity, from which lists of promoters with increased or decreased activity were compiled.

E. coli [8] = assay: microbe, parasite or virus in culture; type: cell-based, Escherichia coli
Pseudomonas aeruginosa = assay: MIC determination against Pseudomonas aeruginosa; type: cell-based
Protocol: as §5, with “The GFP promoter library (Keseler et al., EcoCyc: fusing model organism databases with systems biology. Nucleic Acids Res 41, D605-612, doi:10.1093/nar/gks1027 (2013)) was grown for 18 hours at ambient temperature with the same inoculation strategy as with the Keio collection. The analysis pipeline of Zaslaver et al (Zaslaver et al., A comprehensive library of fluorescent transcriptional reporters for Escherichia coli. Nat Methods 3, 623-628, doi:10.1038/nmeth895 (2006)) was used to generate maps of promoter activity, from which lists of promoters with increased or decreased activity were compiled.” left out

S. aureus [9] = assay: FIC index of pentamidine combined with various salts (checkerboard); type: cell-based, Staphylococcus aureus; details: combination of pentamidine isethionate with each salt; FICI≤0.5 synergy, 1-2 additivity, >4 antagonism
Protocol: as §5

Klebsiella pneumoniae = assay: MIC determination against Klebsiella pneumoniae; type: cell-based
Protocol: as §5, with “The GFP promoter library (Keseler et al., EcoCyc: fusing model organism databases with systems biology. Nucleic Acids Res 41, D605-612, doi:10.1093/nar/gks1027 (2013)) was grown for 18 hours at ambient temperature with the same inoculation strategy as with the Keio collection. The analysis pipeline of Zaslaver et al (Zaslaver et al., A comprehensive library of fluorescent transcriptional reporters for Escherichia coli. Nat Methods 3, 623-628, doi:10.1038/nmeth895 (2006)) was used to generate maps of promoter activity, from which lists of promoters with increased or decreased activity were compiled.” left out

S. aureus [10] = details: 25 mM sodium bicarbonate, BCECF-AM
Protocol: S. aureus cells were loaded with the pH sensitive dye BCECF-AM and were washed and resuspended in PBS. Following baseline readings, PBS (grey circles) or 25 mM sodium bicarbonate (black circles) were added at the arrow and fluorescence measured over time. A standard curve for intracellular pH calibration was used to calculate intracellular pH.

E. coli [11] = details: 25 mM sodium bicarbonate
Protocol: as §5

S. aureus [12] = details: S. aureus grown with 25 mM sodium bicarbonate vs untreated
Protocol: as §5

Enterococcus faecium = system: Enterococcus faecium
Protocol: as §5

[13] = increasing concentrations of sodium bicarbonate
[14] = MRSA isolates, in the presence of 50 mM bicarbonate
[15] = n = 100 isolates, bicarbonate as in label

## CC[C@H]1OC(=O)[C@H](C)[C@@H](O[C@H]2C[C@@](C)(OC)[C@@H](O)[C@H](C)O2)[C@H](C)[C@@H](O[C@@H]2O[C@H](C)C[C@H](N(C)C)[C@H]2O)[C@](C)(O)C[C@@H](C)CN(C)[C@H](C)[C@@H](O)[C@]1(C)O [Azithromycin]
MRSA [1]
  bactericidal action in the presence vs absence of bicarbonate: superior bactericidal action
MRSA [2]; in the absence of bicarbonate
  concentration required to inhibit growth to less than 10% growth: > 64 µg/mL
MRSA [2]; [13]
  dose-dependence of the interaction with sodium bicarbonate: enhancement
[3]
  increase in accumulation in the presence of 50 mM bicarbonate: approximately 2.5 fold
S. pneumoniae; macrolide-resistant S. pneumoniae strain, read-out: MIC, #1186268 (R)
  MIC: 32 mg/L (≈ 42.7 µM)
S. pneumoniae; macrolide-susceptible S. pneumoniae strain, read-out: MIC, #1173373 (S)
  MIC: 0.25 mg/L (≈ 0.334 µM)
P. aeruginosa CA1216
  effect of bicarbonate on antimicrobial activity in vivo (CFU): enhanced
P. aeruginosa [4]
  MIC50: 64 mg/L (≈ 85.4 µM)
  MIC90: 256 mg/L (≈ 342 µM)
P. aeruginosa [4]; read-out: Maximum MIC obtained
  MIC: > 256 mg/L
P. aeruginosa [4]; read-out: Minimum MIC obtained
  MIC: 0.5 mg/L (≈ 0.668 µM)
[5]; MRSA isolates, 50 mM bicarbonate added
  eradication rate: 90%
[5]; MRSA isolates, without bicarbonate
  eradication rate: 7%
[5]; [14]
  MIC50: 1 mg/L
  MIC90: 2 mg/L
[5]; [15]
  MIC50: 128 mg/L (≈ 171 µM)
  MIC90: > 256 mg/L
[5]; n = 100 isolates, bicarbonate as in label, read-out: Maximum MIC obtained
  MIC: > 256 mg/L
[5]; n = 100 isolates, bicarbonate as in label, read-out: Minimum MIC obtained
  MIC: 1 mg/L (≈ 1.34 µM)
P. aeruginosa [6]; in the absence of bicarbonate
  concentration required to inhibit growth to less than 10% growth: > 64 µg/mL
P. aeruginosa [6]; [13]
  dose-dependence of the interaction with sodium bicarbonate: enhancement

## O=C([O-])O.[Na+] [Sodium bicarbonate]
S. aureus [7]
  MIC: 50 to 100 mM
Acinetobacter baumannii
  MIC: 50 mM
E. coli [8]; E. coli, salt at 25 mM, pH adjusted to 7.4
  MIC of dirithromycin in the presence of the salt: 4 mg/L
E. coli [8]; Escherichia coli
  MIC: 100 mM
Pseudomonas aeruginosa
  MIC: >100 mM
S. aureus [9]
  FIC Index (with pentamidine in S. aureus): 0.31
Klebsiella pneumoniae
  MIC: 100 mM
S. aureus [10]
  change in cytoplasmic pH: rapid cytoplasmic alkalinization
E. coli [11]
  reduction of intracellular ATP levels compared to untreated control: ~30%
E. coli [11]; INT to INT-formazan, 60 min
  reduction of cellular respiration: 70%
S. aureus [12]
  uptake of DiSC3(5): increased uptake
Enterococcus faecium
  MIC: 50 to 100 mM
